{"source": "patent US20060128805A1", "about": "“Methods of treating erythropoietin-resistance” (priority 2004, published 2006)", "origin": "cited, not measured here", "conditions": "within the first hour of oral administration", "data": [{"compound": "Cc1c(O)c(=O)ccn1C", "note": "[deferiprone, 1,2-dimethyl-3-hydroxy-pyrid-4-one]", "values": [{"measurement": "mean increase in plasma aluminum", "value": "about 90%"}]}]}
